20 compounds from PubChem BioAssay AID248 (DTP/NCI, 2004) can be followed below.

The subject of the test is L1210 leukemia ip in BDF1 mice, survival T/C. Nature of the test: NCI In Vivo Anticancer Drug Screen. Data for tumor model L1210 Leukemia (intraperitoneal) in B6D2F1 (BDF1) mice. The following applies: endpoint: mean survival time, higher = longer survival. In short, it runs like this: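 Tumor was transplanted into mice, which were then dosed with test compound or vehicle alone. Survival was recorded for each group, and the treated figure was expressed relative to the control figure.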

[1] abbreviates: dose: 100.0 mg/kg/injection, schedule: Q01DX009 (ip), vehicle: saline with Tween-80.
The mark [2] stands for this setting: dose: 200.0 mg/kg/injection, schedule: Q01DX009 (ip), vehicle: saline with Tween-80.
[3] abbreviates: dose: 400.0 mg/kg/injection, schedule: Q01DX009 (ip), vehicle: saline with Tween-80.
[4] abbreviates: dose: 100.0 mg/kg/injection, schedule: Q01DX001 (ip), vehicle: Klucel (hydroxypropylcellulose) (HPC).
Setting [5] is: dose: 100.0 mg/kg/injection, schedule: Q04DX003 (ip), vehicle: Klucel (hydroxypropylcellulose) (HPC).
[6] abbreviates: dose: 200.0 mg/kg/injection, schedule: Q01DX001 (ip), vehicle: Klucel (hydroxypropylcellulose) (HPC).
The mark [7] stands for this setting: dose: 200.0 mg/kg/injection, schedule: Q04DX003 (ip), vehicle: Klucel (hydroxypropylcellulose) (HPC).
Where [8] appears, read: dose: 100.0 mg/kg/injection, schedule: Q01DX009 (ip), vehicle: Klucel (hydroxypropylcellulose) (HPC).
The mark [9] stands for this setting: dose: 200.0 mg/kg/injection, schedule: Q01DX009 (ip), vehicle: Klucel (hydroxypropylcellulose) (HPC).
Where [10] appears, read: dose: 400.0 mg/kg/injection, schedule: Q04DX003 (ip), vehicle: Klucel (hydroxypropylcellulose) (HPC).
[11] abbreviates: dose: 100.0 mg/kg/injection, schedule: Q04DX003 (ip), vehicle: saline with Tween-80.
Where [12] appears, read: dose: 200.0 mg/kg/injection, schedule: Q04DX003 (ip), vehicle: saline with Tween-80.
Setting [13] is: dose: 400.0 mg/kg/injection, schedule: Q04DX003 (ip), vehicle: saline with Tween-80.

Several values for one entry are separate records, joined by “and”; a condition that tells them apart may be missing. Identical values can stand only once. Toxic doses and inconclusive results are not listed.

As for `COc1cc(OC)c(C(=O)c2ccccc2[N+](=O)[O-])c(OC)c1`, the T/C runs as follows: under setting [1], 91 % of control; (dose: 100.0 mg/kg/injection, schedule: Q04DX003 (ip), vehicle: saline) 99 % of control; under setting [2], 92 % of control; (dose: 200.0 mg/kg/injection, schedule: Q04DX003 (ip), vehicle: saline) 99 % of control; under setting [3], 96 % of control; (dose: 400.0 mg/kg/injection, schedule: Q04DX003 (ip), vehicle: saline) 100 % of control.
As for `CN(CCCl)CC1C(c2ccccc2)C1c1ccccc1` (configuration not stated), the T/C was 103 % of control (dose: 25.0 mg/kg/injection, schedule: Q04DX002 (ip), vehicle: Klucel (hydroxypropylcellulose) (HPC)); 111 % of control (dose: 50.0 mg/kg/injection, schedule: Q04DX002 (ip), vehicle: Klucel (hydroxypropylcellulose) (HPC)); 107 % of control and 111 % of control (dose: 100.0 mg/kg/injection, schedule: Q04DX002 (ip), vehicle: Klucel (hydroxypropylcellulose) (HPC)).
For the compound `CC(C)(CO)NCC1CCCC(CNC(C)(C)CO)C1` (configuration not stated), the T/C by setting is: (dose: 50.0 mg/kg/injection, schedule: Q01DX001 (ip), vehicle: carboxymethylcellulose (CMC)) 92 % of control; (dose: 100.0 mg/kg/injection, schedule: Q01DX001 (ip), vehicle: carboxymethylcellulose (CMC)) 101 % of control.
Take `CNc1c(C)cccc1C`: the T/C by setting is: (dose: 50.0 mg/kg/injection, schedule: Q04DX003 (ip), vehicle: Klucel (hydroxypropylcellulose) (HPC)) 105 % of control; under setting [4], 104 % of control; under setting [5], 94 % of control; under setting [6], 102 % of control; under setting [7], 101 % of control; (dose: 400.0 mg/kg/injection, schedule: Q01DX001 (ip), vehicle: Klucel (hydroxypropylcellulose) (HPC)) 107 % of control.
With `CSc1ccc(NC(=O)SCc2ccccc2)cc1`, the T/C was 97 % of control under setting [8]; 95 % of control under setting [9]; 95 % of control (dose: 400.0 mg/kg/injection, schedule: Q01DX009 (ip), vehicle: Klucel (hydroxypropylcellulose) (HPC)).
Consider `O=C(COc1cc(Cl)c(Cl)cc1Cl)OCCN(CCOC(=O)COc1cc(Cl)c(Cl)cc1Cl)C(=O)COc1ccc(Cl)cc1`, for which the T/C is, setting by setting: (dose: 100.0 mg/kg/injection, schedule: Q01DX009 (ip), vehicle: other) 92 % of control; (dose: 200.0 mg/kg/injection, schedule: Q01DX009 (ip), vehicle: other) 92 % of control; (dose: 400.0 mg/kg/injection, schedule: Q01DX009 (ip), vehicle: other) 102 % of control.
Take `O=C(/C=C(/c1ccccc1)P(=O)(c1ccccc1)c1ccccc1)c1ccccc1`: the T/C reads like this: under setting [1], 86 % of control; under setting [2], 89 % of control; under setting [3], 88 % of control.
Turning to `N#CC(/C=C/c1ccco1)Nc1ccccc1C(N)=O` (configuration not stated), the T/C under setting [8] was 121 % of control; the T/C under setting [5] was 93 % of control; the T/C under setting [9] was 121 % of control; the T/C under setting [7] is 94 % of control; the T/C under setting [10] is 100 % of control.
Turning to `CC(=O)Nc1cc(Cl)cc(Cl)c1`, the T/C under setting [11] is 100 % of control, the T/C under setting [12] is 102 % of control and the T/C under setting [13] is 96 % of control.
As for `CCC1=C(c2cc(Cl)c3ccccc3c2OCC(=O)O)OC(CC)(C(=O)c2cc(Cl)c3ccccc3c2OCC(=O)O)CC1` (configuration not stated), the T/C was 96 % of control (dose: 30.0 mg/kg/injection, schedule: Q01DX009 (ip), vehicle: saline with Tween-80); 92 % of control (dose: 31.0 mg/kg/injection, schedule: Q01DX Z (ip), vehicle: other); 94 % of control (dose: 60.0 mg/kg/injection, schedule: Q01DX009 (ip), vehicle: saline with Tween-80); 95 % of control (dose: 62.0 mg/kg/injection, schedule: Q01DX Z (ip), vehicle: other); 103 % of control under setting [11]; 92 % of control (dose: 120.0 mg/kg/injection, schedule: Q01DX009 (ip), vehicle: saline with Tween-80). For the same compound, the T/C under setting [12] was 93 % of control and the T/C (dose: 240.0 mg/kg/injection, schedule: Q01DX009 (ip), vehicle: saline with Tween-80) is 92 % of control.
On to `O=C1C(NCC(O)CO)=C(N2CC2)C(=O)C(NCC(O)CO)=C1N1CC1` (configuration not stated), for which the T/C is 106 % of control (dose: 0.12 mg/kg/injection, schedule: Q04DX003 (ip), vehicle: saline); 119 % of control and 120 % of control (dose: 0.25 mg/kg/injection, schedule: Q01DX009 (ip), vehicle: saline); 106 % of control (dose: 0.25 mg/kg/injection, schedule: Q04DX003 (ip), vehicle: saline); 120 % of control and 121 % of control (dose: 0.5 mg/kg/injection, schedule: Q01DX009 (ip), vehicle: saline); 112 % of control (dose: 0.5 mg/kg/injection, schedule: Q04DX003 (ip), vehicle: saline); 156 % of control (dose: 1.0 mg/kg/injection, schedule: Q01DX009 (ip), vehicle: saline). Besides, the T/C (dose: 1.0 mg/kg/injection, schedule: Q04DX003 (ip), vehicle: saline) is 104 % of control; the T/C (dose: 2.0 mg/kg/injection, schedule: Q01DX001 (ip), vehicle: saline) is 189 % of control; the T/C (dose: 2.0 mg/kg/injection, schedule: Q01DX009 (ip), vehicle: saline) is 216 % of control and 233 % of control; the T/C (dose: 2.0 mg/kg/injection, schedule: Q04DX003 (ip), vehicle: saline) is 161 % of control; the T/C (dose: 4.0 mg/kg/injection, schedule: Q01DX001 (ip), vehicle: saline) was 153 % of control; the T/C (dose: 4.0 mg/kg/injection, schedule: Q01DX009 (ip), vehicle: saline) is 199 % of control and 306 % of control. Besides, the T/C is, setting by setting: (dose: 4.0 mg/kg/injection, schedule: Q04DX003 (ip), vehicle: saline) 173 % of control and 190 % of control; (dose: 8.0 mg/kg/injection, schedule: Q01DX009 (ip), vehicle: saline) 98 % of control and 102 % of control; (dose: 8.0 mg/kg/injection, schedule: Q04DX003 (ip), vehicle: saline) 179 % of control.
For `CC(=O)/C(C)=C\c1ccc(O)cc1`, the T/C is, setting by setting: under setting [11], 91 % of control; under setting [12], 98 % of control; under setting [13], 102 % of control.
On to `Cc1ccc(OS(=O)(=O)c2cccc([N+](=O)[O-])c2)cc1`, for which the T/C was 102 % of control under setting [11], 97 % of control under setting [12] and 100 % of control under setting [13].
On to `CCC(=O)c1ccc(OCC(O)CN2CCC(O)(c3ccccc3)CC2)cc1` (configuration not stated), for which the T/C runs as follows: (dose: 25.0 mg/kg/injection, schedule: Q01DX009 (ip), vehicle: saline with Tween-80) 98 % of control; (dose: 25.0 mg/kg/injection, schedule: Q04DX003 (ip), vehicle: saline with Tween-80) 97 % of control; (dose: 50.0 mg/kg/injection, schedule: Q01DX009 (ip), vehicle: saline with Tween-80) 89 % of control; (dose: 50.0 mg/kg/injection, schedule: Q04DX003 (ip), vehicle: saline with Tween-80) 105 % of control; under setting [1], 95 % of control; under setting [11], 100 % of control.
Regarding `CCCCCCCCCCCCCCCOc1cc(C=O)ccc1OC`, the T/C runs as follows: under setting [4], 87 % of control; under setting [6], 87 % of control.
Turning to `Cc1cccc([P+](Cc2ccccc2)(c2cccc(C)c2)c2cccc(C)c2)c1`, the T/C (dose: 15.0 mg/kg/injection, schedule: Q01DX001 (ip), vehicle: carboxymethylcellulose (CMC)) is 90 % of control.
As to `CC(C)(C)C1CCC2OC(C)(C(C)(C)C)CC(C(C)(C)C)C2C1` (configuration not stated), the T/C (dose: 100.0 mg/kg/injection, schedule: Q01DX001 (ip), vehicle: saline with Tween-80) is 100 % of control; the T/C (dose: 200.0 mg/kg/injection, schedule: Q01DX001 (ip), vehicle: saline with Tween-80) is 100 % of control; the T/C (dose: 400.0 mg/kg/injection, schedule: Q01DX001 (ip), vehicle: saline with Tween-80) was 95 % of control.
Consider `COc1cc(C(=O)O)ccc1[N+](=O)[O-]`, for which the T/C is, setting by setting: under setting [11], 102 % of control; under setting [12], 102 % of control; under setting [13], 96 % of control.
Regarding `Brc1cscc1C1=CCCc2ccccc21`, the T/C was 106 % of control under setting [5], 98 % of control under setting [7] and 101 % of control under setting [10].
For the compound `CSc1nc([N+](C)(C)C)cc([N+](C)(C)C)n1`, the T/C (dose: 6.0 mg/kg/injection, schedule: Q01DX Z (ip), vehicle: saline) is 91 % of control.
